Measured values reported in patent publication US20100069499A1 (priority 2007, published 2010).

How the values were obtained:
Fusarium culmorum = experiment: Test of preventive effect on wheat Fusarium blight; format: in vivo; settings: wheat (Shirogane), foliage application 500 ppm, 4 days darkness and high humidity at 23° C. then 3 days lighting
Experimental: (§1) The controlling effect was evaluated by visually observing the area or a lesion spots on each of test plants at the time of investigation and comparing the area of lesion spots on a plant treated with the compound of the present invention with that on an untreated plant.
Each of plastic pots was filled with sandy loam and sown with wheat (cultivar; Shirogane), followed by growing in a greenhouse for 10 days. The compound 1 of the present invention was formulated into a flowable formulation according to Formulation Example 6. The flowable formulation was diluted to a predetermined concentration (500 ppm) with water, and foliage application of the dilution was carried out so that the dilution adhered sufficiently to the surfaces of leaves of the grown wheat young seedling. After the foliage application, the plant was air-dried and then inoculated by spraying a water suspension of spores of Fusarium culmorum. After the inoculation, the plant was held under darkness and high humidity conditions at 23° C. for 4 days and held under lighting conditions for 3 days, and then the area of lesion spots was investigated.

Sclerotinia sclerotiorum = experiment: Test of preventive effect on cucumber stem rot; format: in vivo; settings: cucumber (Sagamihanjiro), foliage application 500 ppm, 4 days at 18° C. and high humidity
Experimental: as §1
Each of plastic pots was filled with sandy loam and sown with cucumber (variety; Sagamihanjiro), followed by growing in a greenhouse for 12 days. The compound 2 of the present invention was formulated into a flowable formulation according to Formulation Example 6. The flowable formulation was diluted to a predetermined concentration (500 ppm) with water, and foliage application of the dilution was carried out so that the dilution adhered sufficiently to the surfaces of leaves of the grown cucumber young seedling. After the foliage application, the plant was air-dried and a PDA medium containing mycelia of Sclerotinia sclerotiorum was placed on the surfaces of the cucumber leaves. After the inoculation, the plant was grown at 18° C. and high humidity for 4 days. Then, the area of lesion spots was investigated.

Row | Structure (SMILES) | area of lesion spots on the treated plant relative to that on an untreated plant (Fusarium culmorum) | area of lesion spots on the treated plant relative to that on an untreated plant (Sclerotinia sclerotiorum)
1 | C#CCOc1c(F)cc(C(=O)NCC2CCCCC2)cc1Cl [compound 1, N-(cyclohexylmethyl)-3-chloro-5-fluoro-4-(2-propynyloxy)benzamide] | ≤ 30% | –
2 | C#CCOc1c(F)cc(C(=O)NC2CCCCC2C)cc1Cl (centres unmarked) [compound 2, N-(2-methylcyclohexyl)-3-chloro-5-fluoro-4-(2-propynyloxy)benzamide] | – | ≤ 30%
